Series [1] concerns the target T1, JAK3 (Homo sapiens, UniProt P52333).
T1 sequence (P52333 1-1124): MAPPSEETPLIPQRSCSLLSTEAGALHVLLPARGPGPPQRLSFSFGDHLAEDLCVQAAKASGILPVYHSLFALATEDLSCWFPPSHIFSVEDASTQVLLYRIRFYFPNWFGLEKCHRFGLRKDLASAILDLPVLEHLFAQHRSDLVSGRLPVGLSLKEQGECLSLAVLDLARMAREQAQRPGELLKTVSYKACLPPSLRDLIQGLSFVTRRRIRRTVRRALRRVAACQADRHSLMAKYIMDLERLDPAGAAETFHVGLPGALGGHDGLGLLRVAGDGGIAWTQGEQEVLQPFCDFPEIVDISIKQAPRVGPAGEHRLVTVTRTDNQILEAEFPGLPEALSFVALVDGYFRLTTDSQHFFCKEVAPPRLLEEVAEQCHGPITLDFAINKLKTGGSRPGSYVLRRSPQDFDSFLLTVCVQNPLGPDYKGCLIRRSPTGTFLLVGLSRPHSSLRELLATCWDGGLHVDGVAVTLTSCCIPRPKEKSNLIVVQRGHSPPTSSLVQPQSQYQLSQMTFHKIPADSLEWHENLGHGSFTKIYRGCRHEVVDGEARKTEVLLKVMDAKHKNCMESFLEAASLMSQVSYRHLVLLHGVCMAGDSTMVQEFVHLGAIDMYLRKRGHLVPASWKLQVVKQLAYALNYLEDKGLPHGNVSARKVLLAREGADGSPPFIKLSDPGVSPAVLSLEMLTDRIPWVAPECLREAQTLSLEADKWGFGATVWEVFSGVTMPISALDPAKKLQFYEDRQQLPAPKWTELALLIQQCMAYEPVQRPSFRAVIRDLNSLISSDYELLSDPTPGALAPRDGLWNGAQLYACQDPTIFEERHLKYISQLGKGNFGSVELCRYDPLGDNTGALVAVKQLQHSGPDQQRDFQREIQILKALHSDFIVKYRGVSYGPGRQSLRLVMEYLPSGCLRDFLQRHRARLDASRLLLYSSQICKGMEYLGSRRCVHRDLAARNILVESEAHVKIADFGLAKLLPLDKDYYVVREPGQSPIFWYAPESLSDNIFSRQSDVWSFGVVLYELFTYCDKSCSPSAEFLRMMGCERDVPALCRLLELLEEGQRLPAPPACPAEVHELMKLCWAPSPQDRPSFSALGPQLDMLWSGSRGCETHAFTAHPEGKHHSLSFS
Nature of the series: Human kinase selectivity screening: JAK3. The class given is biochemical. The following applies: read-out: JAK3 pIC50 values (converted). The text has this:
(§1) These kinases were chosen for general selectivity screening owing to their broad representation of the human kinome.

Series [2] concerns the target BTK (Homo sapiens, UniProt Q06187). Nature of the series: Human kinase selectivity screening: BTK. The class given is biochemical. The note with it: read-out: BTK pIC50 values (converted).
Description: as §1

Series [3] has as its target T2, IKK1 (Homo sapiens, UniProt O15111).
T2 sequence (O15111 1-745): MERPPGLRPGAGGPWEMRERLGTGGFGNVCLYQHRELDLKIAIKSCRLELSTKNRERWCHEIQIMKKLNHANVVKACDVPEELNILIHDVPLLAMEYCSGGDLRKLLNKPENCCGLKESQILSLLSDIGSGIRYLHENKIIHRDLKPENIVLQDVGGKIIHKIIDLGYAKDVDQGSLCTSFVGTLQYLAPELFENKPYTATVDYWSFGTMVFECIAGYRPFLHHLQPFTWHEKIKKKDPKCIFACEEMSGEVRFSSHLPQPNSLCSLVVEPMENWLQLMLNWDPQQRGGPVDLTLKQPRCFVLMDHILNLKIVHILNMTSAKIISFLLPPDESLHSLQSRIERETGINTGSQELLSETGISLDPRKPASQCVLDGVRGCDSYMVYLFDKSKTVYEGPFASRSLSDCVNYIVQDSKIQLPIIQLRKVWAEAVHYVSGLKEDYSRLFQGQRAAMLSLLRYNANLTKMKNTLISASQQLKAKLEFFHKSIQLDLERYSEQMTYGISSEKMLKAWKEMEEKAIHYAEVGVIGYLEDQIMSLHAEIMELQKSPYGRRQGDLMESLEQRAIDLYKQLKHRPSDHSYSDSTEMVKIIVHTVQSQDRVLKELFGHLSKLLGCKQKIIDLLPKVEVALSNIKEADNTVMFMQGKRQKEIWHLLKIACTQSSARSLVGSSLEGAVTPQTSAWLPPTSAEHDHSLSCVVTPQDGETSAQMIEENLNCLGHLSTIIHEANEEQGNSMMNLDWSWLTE
Nature of the series: Human kinase selectivity screening: IKK1. The note with it: read-out: IKK1 pIC50 values (converted). The class given is biochemical.
Description: as §1

Series [4] concerns the target JAK2 (Homo sapiens, UniProt O60674). Nature of the series: Human kinase selectivity screening: JAK2. The following applies: read-out: JAK2 pIC50 values (converted). The class given is biochemical.
Description: as §1

The target in series [5] is SYK (Homo sapiens, UniProt P43405). The series can be described thus: Human kinase selectivity screening: SYK. The class given is biochemical. The note with it: read-out: SYK pIC50 values (converted).
Description: as §1

Series [6] concerns the target T3, ITK (Homo sapiens, UniProt Q08881).
T3 sequence (Q08881 1-620): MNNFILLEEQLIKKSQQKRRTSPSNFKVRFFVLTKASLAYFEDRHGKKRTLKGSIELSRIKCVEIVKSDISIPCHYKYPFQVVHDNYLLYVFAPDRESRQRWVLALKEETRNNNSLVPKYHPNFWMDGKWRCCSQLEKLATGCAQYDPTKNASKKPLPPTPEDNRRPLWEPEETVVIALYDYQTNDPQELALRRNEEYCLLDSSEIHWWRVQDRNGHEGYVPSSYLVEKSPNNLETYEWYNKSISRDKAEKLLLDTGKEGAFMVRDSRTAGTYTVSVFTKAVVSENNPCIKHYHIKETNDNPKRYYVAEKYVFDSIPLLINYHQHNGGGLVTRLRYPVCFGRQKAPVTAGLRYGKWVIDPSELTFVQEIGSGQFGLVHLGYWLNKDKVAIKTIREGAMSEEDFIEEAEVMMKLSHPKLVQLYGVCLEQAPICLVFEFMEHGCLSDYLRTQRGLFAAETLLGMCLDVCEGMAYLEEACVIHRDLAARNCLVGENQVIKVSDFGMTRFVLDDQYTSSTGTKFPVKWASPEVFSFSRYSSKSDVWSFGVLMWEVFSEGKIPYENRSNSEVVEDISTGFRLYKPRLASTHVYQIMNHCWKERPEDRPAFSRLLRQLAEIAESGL
The series can be described thus: Human kinase selectivity screening: ITK. The class given is biochemical. The following applies: read-out: ITK pIC50 values (converted).
Description: as §1

Series [7] is described as follows: GSK in-house artificial membrane permeability assay. The note with it: PAMPA, pH 7.4, Measured. The class given is in vitro ADME. Here is the method: 250 µL and 100 µL 50 mM phosphate buffer pH 7.4 with 0.5% encapsin was applied to the donor and receiver compartments, respectively. 2.5 µL of a 10 mM stock solution of compound in DMSO was added to the donor compartment. The assay was incubated at RT for 3 hours. […] The permeability (logPapp) measures how fast molecules pass through the lipid membrane is expressed in nm/s.
On the technique in general: In PAMPA a lipid-coated filter parts donor from acceptor wells.

The values that follow come from article PMC4207660, “Identification and Characterization of Hundreds of Potent and Selective Inhibitors of Trypanosoma brucei Growth from a Kinase-Targeted Library Screening Campaign” (PLoS Neglected Tropical Diseases, 2014).

The Papp is a coefficient for how fast a substance crosses the barrier. Low readings indicate slow passage, high ones fast passage.

Sequence of BTK (Q06187 whole entry): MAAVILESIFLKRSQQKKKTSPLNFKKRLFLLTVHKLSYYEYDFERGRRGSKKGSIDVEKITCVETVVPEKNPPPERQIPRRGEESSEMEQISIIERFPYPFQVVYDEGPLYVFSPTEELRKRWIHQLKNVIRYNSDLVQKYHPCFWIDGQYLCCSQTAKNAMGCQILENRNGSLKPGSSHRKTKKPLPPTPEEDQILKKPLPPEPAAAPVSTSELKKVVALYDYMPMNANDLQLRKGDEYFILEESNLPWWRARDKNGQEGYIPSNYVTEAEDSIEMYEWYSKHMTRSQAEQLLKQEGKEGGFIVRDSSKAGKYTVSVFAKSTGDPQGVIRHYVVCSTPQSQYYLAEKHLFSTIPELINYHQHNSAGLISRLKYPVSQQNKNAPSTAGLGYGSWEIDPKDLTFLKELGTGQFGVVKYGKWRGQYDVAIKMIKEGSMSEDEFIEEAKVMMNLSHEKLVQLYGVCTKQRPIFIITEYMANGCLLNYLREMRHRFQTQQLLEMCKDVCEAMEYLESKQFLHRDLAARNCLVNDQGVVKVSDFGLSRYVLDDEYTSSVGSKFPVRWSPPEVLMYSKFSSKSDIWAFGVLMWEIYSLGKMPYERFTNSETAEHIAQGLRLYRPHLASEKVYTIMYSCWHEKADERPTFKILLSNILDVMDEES
Sequence of JAK2 (O60674 whole entry): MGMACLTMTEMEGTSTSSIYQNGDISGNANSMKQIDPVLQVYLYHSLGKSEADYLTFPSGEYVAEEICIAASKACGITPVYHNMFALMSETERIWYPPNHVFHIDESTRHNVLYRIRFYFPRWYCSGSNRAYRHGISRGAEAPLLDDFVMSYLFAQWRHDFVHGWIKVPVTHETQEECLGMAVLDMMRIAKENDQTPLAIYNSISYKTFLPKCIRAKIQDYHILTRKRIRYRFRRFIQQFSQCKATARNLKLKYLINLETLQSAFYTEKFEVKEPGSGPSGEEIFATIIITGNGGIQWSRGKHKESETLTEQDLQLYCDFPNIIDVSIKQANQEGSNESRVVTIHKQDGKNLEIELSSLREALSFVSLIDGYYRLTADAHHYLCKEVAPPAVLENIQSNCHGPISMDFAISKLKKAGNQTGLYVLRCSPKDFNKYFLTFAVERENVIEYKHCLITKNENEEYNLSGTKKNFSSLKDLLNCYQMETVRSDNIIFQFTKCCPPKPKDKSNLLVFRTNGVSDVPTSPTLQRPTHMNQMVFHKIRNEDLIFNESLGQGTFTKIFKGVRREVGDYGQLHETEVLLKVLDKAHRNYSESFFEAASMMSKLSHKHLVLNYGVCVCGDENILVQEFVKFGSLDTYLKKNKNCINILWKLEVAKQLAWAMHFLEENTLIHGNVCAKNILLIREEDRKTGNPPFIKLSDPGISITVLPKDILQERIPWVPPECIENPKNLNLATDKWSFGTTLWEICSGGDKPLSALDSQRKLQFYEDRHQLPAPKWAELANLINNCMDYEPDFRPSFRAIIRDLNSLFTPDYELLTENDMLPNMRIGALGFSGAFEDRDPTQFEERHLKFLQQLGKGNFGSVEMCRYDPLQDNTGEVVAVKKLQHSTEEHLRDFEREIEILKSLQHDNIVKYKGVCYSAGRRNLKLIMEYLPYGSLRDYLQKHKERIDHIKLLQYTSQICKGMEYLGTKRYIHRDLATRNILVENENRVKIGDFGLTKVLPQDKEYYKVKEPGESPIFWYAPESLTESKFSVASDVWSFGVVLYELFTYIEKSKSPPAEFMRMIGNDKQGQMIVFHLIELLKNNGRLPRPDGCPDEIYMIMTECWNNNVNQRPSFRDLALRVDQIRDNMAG

`CN(C)Cc1ccc(-c2[nH]c3ncc(C#N)cc3c2-c2ccccc2)cc1` [NEU-0001206]: the IC50 in series [1] is 501 nM; in series [2], 316 nM; in series [3], over 25100 nM; in series [4] it was 501 nM; in series [5], 251 nM; in series [6], 12.6 nM. Besides, in series [7], the apparent permeability (Papp) at 3 h, 100 µM came to 46 ×10⁻⁶ cm/s.
Take `Cn1cc(-c2cnc3[nH]cc(-c4cccc(C#N)c4)c3c2)cn1` [NEU-0001207]: the IC50 in series [1] was 631 nM; in series [2], over 25100 nM; in series [3] it was 158 nM; in series [4], 794 nM; in series [5], 3160 nM; in series [6] it was 1000 nM. For the same compound, the Papp at 3 h, 100 µM in series [7] came to 23 ×10⁻⁶ cm/s.
As to `Cc1cc(Nc2cc(C3CC3)[nH]n2)nc(N2CCCCC2)n1` [NEU-0001127], the IC50 in series [1] was 631 nM; in series [2], 5010 nM; in series [3], 20000 nM; in series [4], 398 nM; in series [5], 1000 nM; in series [6], 1000 nM. This compound also displayed a Papp at 3 h, 100 µM in series [7] of 38 ×10⁻⁶ cm/s.
Regarding `O=C(Nc1ccc(-c2ccnc3[nH]ccc23)s1)C1(Cc2ccccc2)CCCNC1` (stereo not drawn) [NEU-0001240], the IC50 in series [1] is 501 nM; in series [2], 794 nM; in series [3], 1580 nM; in series [4], 501 nM; in series [5], 20000 nM; in series [6], 316 nM. The compound further registered a Papp at 3 h, 100 µM in series [7] of 18 ×10⁻⁶ cm/s.
Consider `CCCNc1nc(Nc2cnn(C)c2)c2c(=O)[nH]ccc2n1` [NEU-0001187], for which the IC50 in series [1] was 2.51 nM; in series [2], 200 nM; in series [3], 1580 nM; in series [4], 3.98 nM; in series [5], 63.1 nM; in series [6] it was 63.1 nM. In addition, in series [7], the Papp at 3 h, 100 µM came out at 33 ×10⁻⁶ cm/s.
With `O=S1(=O)Cc2ccc(Nc3nccc(-c4ccc(F)cc4)n3)cc2C1` [NEU-0001142], the IC50 in series [1] was 631 nM; in series [2], 20000 nM; in series [3], 631 nM; in series [4] it was 50.1 nM; in series [5], 501 nM; in series [6], over 25100 nM. This compound displayed a Papp at 3 h, 100 µM in series [7] of 7.7 ×10⁻⁶ cm/s.
Consider `CCCCc1nc(Nc2cccc(C)c2)c2c(=O)[nH]ccc2n1` [NEU-0001191], for which the IC50 was 200 nM in series [1]; over 25100 nM in series [2]; over 25100 nM in series [3]; 251 nM in series [4]; 2510 nM in series [5]; over 25100 nM in series [6].
